Results on 18 compounds are retold here after patent US10167299B2, “1-(3-aminopropyl) substituted cyclic amine compounds, preparation method therefor, and pharmaceutical compositions and uses thereof” (SHANGHAI INSTITUTE OF MATERIA MEDICA, CHINESE ACADEMY OF …, priority 2013, dated 2019).

Data set [1] has as its target CCR5 (Homo sapiens (Human), UniProt P51681). Nature of the data set: Calcium flux inhibition experiment. It is filed as cell-based. Particulars: for IC50: HEK293/CCR5-Gα16 cell line, calcium flux, read-out: CCR5 IC50; for calcium influx inhibition effect in words, versus positive control compounds: conclusion from Table 1.
The nature of data set [2]: Cytotoxicity (CC50) in TZM-bl cells. The class given is cell-based. The note with it: human.
Data set [3] concerns HIV-1SF162 virus strain. Nature of the data set: Inhibition activity on TZM-bl cells infected with HIV-1SF162. Particulars: for EC50: Human immunodeficiency virus 1, TZM-bl; for therapeutic index (TI): TZM-bl cells infected with HIV-1SF162.
Setting [4] is: TZM-bl cells (Table 3), read-out: CC50.

SMILES strings stand for the structures. Values after ≈ are worked out from the molar mass of the structure shown. Where two headings read alike, the source gives them in different places.

CCR5, sequence (P51681 whole entry): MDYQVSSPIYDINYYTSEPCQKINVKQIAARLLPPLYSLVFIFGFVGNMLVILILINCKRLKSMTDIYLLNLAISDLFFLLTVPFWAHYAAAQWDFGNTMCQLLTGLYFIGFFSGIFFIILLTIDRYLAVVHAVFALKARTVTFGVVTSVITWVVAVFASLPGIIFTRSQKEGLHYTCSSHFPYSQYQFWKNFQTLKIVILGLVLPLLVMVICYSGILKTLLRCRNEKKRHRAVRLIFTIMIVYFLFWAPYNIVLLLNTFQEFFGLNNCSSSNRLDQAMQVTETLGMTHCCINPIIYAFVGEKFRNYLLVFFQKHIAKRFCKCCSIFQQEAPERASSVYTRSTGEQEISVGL

In the case of `CC(=O)N[C@@H](CCN1C2CCC1CC(n1c(C)nc3c1CCN(C(=O)C(C)C)C3)C2)c1ccc(Cl)s1` (stereo partly drawn) [Compound 129, N-{(1S)-3-[(3-endo)-3-(5-isobutyryl-2-methyl-4,5,6,7-tetrahydro-1H-imidazo[4,5-c]pyridin-1-yl)-8-azabicyclo[3.2.1]octane-8-yl]-1-(5-chlorothiophen-2-yl)-propyl}acetamide], the IC50 in data set [1] is 14.2 nM. The compound also registered a CC50 in data set [2] above 200 µg/mL. Further, in data set [3], the half-maximal effective concentration (EC50) was found to be 0.072 µg/mL (≈ 0.135 µM) and the “therapeutic index (TI)” value is above 1526.72.
In the case of `COC(=O)N1CCc2c(nc(C)n2C2CC3CCC(C2)N3CC[C@H](NC(C)=O)c2nccs2)C1` (stereo partly drawn) [Compound 119, Methyl 1-{(endo)-8-[(S)-3-acetamido-3-(thiazol-2-yl)-propyl]-8-azabicyclo[3.2.1]octan-3-yl}-2-methyl-1,4,6,7-tetrahydro-5H-imidazo[4,5-c]pyridine-5-carboxylate], in data set [1], the IC50 came out at 4.77 nM and the “calcium influx inhibition effect in words, versus positive control compounds” value is “better than the positive control compounds”. In addition, the CC50 in data set [2] was above 200 µg/mL. Further, in data set [3], the EC50 was 0.738 µg/mL (≈ 1.52 µM) and the “therapeutic index (TI)” value is above 270.84.
Regarding `CCC(=O)N1CCc2c(nc(C)n2C2CC3CCC(C2)N3CC[C@H](NC(C)=O)c2ccc(Cl)s2)C1` (stereo partly drawn) [Compound 127, N-{(1S)-3-[(3-endo)-3-(5-propionyl-2-methyl-4,5,6,7-tetrahydro-1H-imidazo[4,5-c]pyridin-1-yl)-8-azabicyclo[3.2.1]octane-8-yl]-1-(5-chlorothiophen-2-yl)-propyl}acetamide], the IC50 in data set [1] came out at 22.9 nM. The CC50 in data set [2] (setting [4]) is above 200 µg/mL. In addition, in data set [3], the EC50 turned out to be 0.145 µg/mL (≈ 0.28 µM) and the “therapeutic index (TI)” value is on record as above 1379.94.
`CC(=O)N[C@@H](CCN1C2CCC1CC(n1c(C)nc3c1CCN(C(=O)C(C)C)C3)C2)c1ccc(F)s1` (stereo partly drawn) [Compound 135, N-{(1S)-3-[(3-endo)-3-(5-isobutyryl-2-methyl-4,5,6,7-tetrahydro-1H-imidazo[4,5-c]pyridin-1-yl)-8-azabicyclo[3.2.1]octane-8-yl]-1-(5-fluorothiophen-2-yl)-propyl}acetamide]: in data set [1], the half-inhibitory concentration (IC50) came to 8.28 nM and the “calcium influx inhibition effect in words, versus positive control compounds” value is given as “comparable to the positive control compounds”. For the same compound, the CC50 in data set [2] was above 200 µg/mL. In data set [3], it took 0.155 µg/mL (≈ 0.301 µM) to reach a half-maximal effect (EC50) and the “therapeutic index (TI)” value is recorded as above 1222.11.
On the same counts, the results for `COC(=O)N1CCc2c(nc(C)n2C2CC3CCC(C2)N3CC[C@H](NC(C)=O)c2ccc(F)s2)C1` (stereo partly drawn) [Compound 133, Methyl 1-{(endo)-8-[(S)-3-acetamido-3-(5-fluorothiophen-2-yl)-propyl]-8-azabicyclo[3.2.1]octan-3-yl}-2-methyl-1,4,6,7-tetrahydro-5H-imidazo[4,5-c]pyridine-5-carboxylate] are 1.78 nM, “better than the positive control compounds”, above 200 µg/mL, 0.152 µg/mL (≈ 0.302 µM) and above 1313.56.
Regarding `Cc1nnc(C(C)C)n1C1CC2CCC(C1)N2CC[C@H](NC(=O)C1CCCC1)c1ccc(F)nc1` (stereo partly shown) [Compound 36], the IC50 in data set [1] was determined as 31.8 nM. Besides, in data set [2] (setting [4]), the 50% cytotoxic concentration (CC50) was above 200 µg/mL. In addition, the EC50 in data set [3] was above 40 µg/mL.
With `Cc1nnc(C(C)C)n1C1CC2CCC(C1)N2CC[C@H](NC(=O)C1CCCCC1)c1ccc(F)nc1` (stereo partly shown) [Compound 35], the IC50 in data set [1] stood at 270 nM. The compound further gave a half-maximal cytotoxic concentration (CC50) in data set [2] above 200 µg/mL. This compound also had an EC50 in data set [3] above 40 µg/mL.
In the case of `CCC(=O)N1CCc2c(nc(C)n2C2CC3CCC(C2)N3CC[C@H](NC(C)=O)c2nccs2)C1` (stereo partly drawn) [Compound 120, N-{(1S)-3-[(3-endo)-3-(5-propionyl-2-methyl-4,5,6,7-tetrahydro-1H-imidazo[4,5-c]pyridin-1-yl)-8-azabicyclo[3.2.1]octane-8-yl]-1-(thiazol-2-yl)-propyl}acetamide], in data set [1], the IC50 was determined as 27.7 nM. Also, the CC50 in data set [2] was above 200 µg/mL. Moreover, in data set [3], a half-maximal response (EC50) required 0.831 µg/mL (≈ 1.71 µM) and the “therapeutic index (TI)” value is above 240.76.
With `COC(=O)N1CCc2c(nc(C)n2C2CC3CCC(C2)N3CC[C@H](NC(C)=O)c2ccc(Cl)s2)C1` (stereo partly drawn) [Compound 126, Methyl 1-{(endo)-8-[(S)-3-acetamido-3-(5-chlorothiophen-2-yl)-propyl]-8-azabicyclo[3.2.1]octan-3-yl}-2-methyl-1,4,6,7-tetrahydro-5H-imidazo[4,5-c]pyridine-5-carboxylate], the IC50 in data set [1] was 22 nM. Moreover, the CC50 in data set [2] was above 200 µg/mL. In addition, in data set [3], the EC50 stood at 0.091 µg/mL (≈ 0.175 µM) and the “therapeutic index (TI)” value is given as above 2207.68.
On the same counts, the results for `CCCC(=O)N1CCc2c(nc(C)n2C2CC3CCC(C2)N3CC[C@H](NC(C)=O)c2ccc(Cl)s2)C1` (stereo partly drawn) [Compound 128, N-{(1S)-3-[(3-endo)-3-(5-n-butyryl-2-methyl-4,5,6,7-tetrahydro-1H-imidazo[4,5-c]pyridin-1-yl)-8-azabicyclo[3.2.1]octane-8-yl]-1-(5-chlorothiophen-2-yl)-propyl}acetamide] are 17.5 nM, above 200 µg/mL, 0.174 µg/mL (≈ 0.327 µM) and above 1150.82.
Regarding `CC(=O)N[C@@H](CCN1C2CCC1CC(n1c(C)nc3c1CCN(C(C)=O)C3)C2)c1nccs1` (stereo partly drawn) [Compound 118, N-{(1S)-3-[(3-endo)-3-(5-acetyl-2-methyl-4,5,6,7-tetrahydro-1H-imidazo[4,5-c]pyridin-1-yl)-8-azabicyclo[3.2.1]octane-8-yl]-1-(thiazol-2-yl)-propyl}acetamide], in data set [1], the IC50 turned out to be 16.9 nM. Also, the CC50 in data set [2] (setting [4]) is above 200 µg/mL. Further, in data set [3], the EC50 is 0.669 µg/mL (≈ 1.42 µM) and the “therapeutic index (TI)” value was above 168.03.
As for `CC(=O)N[C@@H](CCN1C2CCC1CC(n1c(C)nc3c1CCN(C(=O)C1CC1)C3)C2)c1nccs1` (stereo partly drawn) [Compound 122, N-{(1S)-3-[(3-endo)-3-(5-cyclopropionyl-2-methyl-4,5,6,7-tetrahydro-1H-imidazo[4,5-c]pyridin-1-yl)-8-azabicyclo[3.2.1]octane-8-yl]-1-(thiazol-2-yl)-propyl}acetamide], the IC50 in data set [1] is 24.5 nM. In addition, the CC50 in data set [2] was above 200 µg/mL. Besides, in data set [3], a half-maximal response (EC50) required 0.69 µg/mL (≈ 1.39 µM) and the “therapeutic index (TI)” value is above 290.06.
For `Cc1ccc([C@H](CCN2C3CCC2CC(n2c(C)nnc2C(C)C)C3)NC(=O)Cc2ccc(F)cc2)s1` (stereo partly drawn) [Compound 33, 4-fluoro-N-[(1S)-3-[exo-3-(3-isopropyl-5-methyl-4H-1,2,4-triazol-4-yl)-8-azabicyclo[3.2.1]octane-8-yl]-1-(5-methylthiophen-2-yl)propyl]phenylacetamide], in that order: 25 nM, above 200 µg/mL, 0.147 µg/mL (≈ 0.281 µM) and above 328.95.
Turning to `Cc1ccc([C@H](CCN2C3CCC2CC(n2c(C)nnc2C(C)C)C3)NC(=O)C2CCCC2)s1` (stereo partly drawn) [Compound 31, N-[(1S)-3-[exo-3-(3-isopropyl-5-methyl-4H-1,2,4-triazol-4-yl)-8-azabicyclo[3.2.1]octane-8-yl]-1-(5-methylthiophen-2-yl)propyl]cyclopentane-1-carboxamide], in data set [1], the IC50 came to 9.76 nM and the “calcium influx inhibition effect in words, versus positive control compounds” value was “comparable to the positive control compounds”. Besides, the CC50 in data set [2] is above 200 µg/mL. Besides, in data set [3], the EC50 turned out to be 0.033 µg/mL (≈ 0.0682 µM) and the “therapeutic index (TI)” value is reported as above 5714.29.
With `Cc1ccc([C@H](CCN2C3CCC2CC(n2c(C)nnc2C(C)C)C3)NC(=O)c2ccccc2)s1` (stereo partly drawn) [Compound 32, N-[(1S)-3-[exo-3-(3-isopropyl-5-methyl-4H-1,2,4-triazol-4-yl)-8-azabicyclo[3.2.1]octane-8-yl]-1-(5-methylthiophen-2-yl)propyl]benzamide], in data set [1], the IC50 came out at 8.35 nM and the “calcium influx inhibition effect in words, versus positive control compounds” value is given as “comparable to the positive control compounds”. The same compound came in with a CC50 in data set [2] above 200 µg/mL. The EC50 in data set [3] is above 40 µg/mL.
As for `CCCC(=O)N1CCc2c(nc(C)n2C2CC3CCC(C2)N3CC[C@H](NC(C)=O)c2ccc(F)s2)C1` (stereo partly drawn) [Compound 136, N-{(1S)-3-[(3-endo)-3-(5-n-butyryl-2-methyl-4,5,6,7-tetrahydro-1H-imidazo[4,5-c]pyridin-1-yl)-8-azabicyclo[3.2.1]octane-8-yl]-1-(5-fluorothiophen-2-yl)-propyl}acetamide], the IC50 in data set [1] turned out to be 22.1 nM. Besides, in data set [2] (setting [4]), the CC50 was above 200 µg/mL. For the same compound, in data set [3], the EC50 came out at 0.011 µg/mL (≈ 0.0213 µM) and the “therapeutic index (TI)” value is on record as above 4834.51.
For `Cc1nnc(C(C)C)n1C1CC2CCC(C1)N2CC[C@H](NC(=O)C1CCCC1)c1ccc(F)s1` (stereo partly drawn) [Compound 39, N-[(1S)-3-[exo-3-(3-isopropyl-5-methyl-4H-1,2,4-triazol-4-yl)-8-azabicyclo[3.2.1]octane-8-yl]-1-(5-fluorothiophen-2-yl)propyl]cyclopentane-1-carboxamide], in data set [1], the IC50 is 1.41 nM and the “calcium influx inhibition effect in words, versus positive control compounds” value was “better than the positive control compounds”. The CC50 in data set [2] (setting [4]) was above 200 µg/mL. Also, in data set [3], the EC50 was determined as 1.02 µg/mL (≈ 2.09 µM) and the “therapeutic index (TI)” value was above 196.08.
With `Cc1nnc(C(C)C)n1C1CC2CCC(C1)N2CC[C@H](NC(=O)C1CCCCC1)c1ccc(F)s1` (stereo partly drawn) [Compound 38, N-[(1S)-3-[exo-3-(3-isopropyl-5-methyl-4H-1,2,4-triazol-4-yl)-8-azabicyclo[3.2.1]octane-8-yl]-1-(5-fluorothiophen-2-yl)propyl]cyclohexane-1-carboxamide], in data set [1], the IC50 is 9.33 nM and the “calcium influx inhibition effect in words, versus positive control compounds” value is on record as “comparable to the positive control compounds”. Further, the cytotoxic concentration (CC50) in data set [2] is above 200 µg/mL. Besides, in data set [3], the EC50 worked out at 2.61 µg/mL (≈ 5.2 µM) and the “therapeutic index (TI)” value is listed as above 73.64.
